Holding throughout (assay): NCI anticancer screen, dose series, 48 h
Experiment [1] concerns MOLT-4.
For experiment [2], the system named is 786-0.
In experiment [3] the test system is UACC-62.
The test system of experiment [4] is SF-539.
Experiment [5] has as its system SN12C.
For experiment [6], the system named is COLO 205.
Experiment [7] has as its system OVCAR-4.
For experiment [8], the system named is SNB-19.
Experiment [9] deals with NCI-H522.
Experiment [10] has as its system HT-29.
Experiment [11] relates to SK-MEL-2.
Experiment [12] concerns K562.
Experiment [13] deals with RPMI-8226.
Experiment [14] relates to NCI-H23.
Experiment [15] has as its system EKVX.
For experiment [16], the system named is SF-268.
Experiment [17] relates to HCC 2998.

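Values below derive from 48-hour exposures of cells grown in 96-well plates, with endpoints linearly interpolated between the two concentrations bracketing the appropriate inhibition level. At the GI50, growth is halved.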 Activity calls are given as the source filed them. Cut-off read from the data, not from the text of the source: active = GI50 up to about 1.1 µM and inactive = higher.

As for `N#Cc1c([N+](=O)[O-])cc(C(F)(F)F)cc1[N+](=O)[O-]`, the GI50 is 2.08 µM (inactive) in [1]; 6.14 µM (inactive) in experiment [2]; 5.04 µM (inactive) in experiment [3]; 5.94 µM (inactive) in [4]; 14.1 µM (inactive) in experiment [5]; 4.88 µM (inactive) in experiment [6]. Further, the GI50 in experiment [7] is 2.11 µM (inactive); in [8], 18.3 µM (inactive); in experiment [9], 0.59 µM (active); in experiment [10] it was 2.96 µM (inactive); in experiment [11], 18.5 µM (inactive); in [12] it was 2.05 µM (inactive). Further, the GI50 in [13] is 2.57 µM (inactive); in experiment [14] it was 7.94 µM (inactive); in experiment [15], 18 µM (inactive); in [16], 13.1 µM (inactive).
Consider `Cn1c2cccc3nnc4cccc(c4c32)n1C`, for which the GI50 in experiment [1], in [2], in experiment [3], in experiment [4], in experiment [5] and in [6] was > 100 µM (inactive) each time. In addition, the GI50 in experiment [7], in experiment [8], in experiment [10], in experiment [11], in [12] and in experiment [13] was > 100 µM (inactive) each time. Also, the GI50 in experiment [17], in [15] and in experiment [16] was > 100 µM (inactive) throughout.
For the compound `CC(=O)Oc1cc(OC(C)=O)c2cc3c(cc2c1OC(C)=O)C(=O)C1(CCCC1)C3=O`, the GI50 was 3.18 µM (inactive) in experiment [1]; 17.2 µM (inactive) in experiment [2]; 15.8 µM (inactive) in [3]; 17.7 µM (inactive) in [5]; 17.4 µM (inactive) in experiment [6]; 18.6 µM (inactive) in experiment [7]. Further, the GI50 in experiment [10] is 12.2 µM (inactive); in [12], 14.7 µM (inactive); in experiment [13], 2.29 µM (inactive); in [14], 17.7 µM (inactive); in experiment [17], 21.7 µM (inactive); in [15], 20 µM (inactive). Besides, the GI50 in experiment [16] is 22.5 µM (inactive).
With `ON1CCc2c([nH]c3ccccc23)C1c1ccc(Cl)cc1` (stereo not given), the GI50 in experiment [1] is 21.4 µM (inactive); in experiment [2], 32.1 µM (inactive); in experiment [3] it was 31 µM (inactive); in [4], 30.5 µM (inactive); in [5] it was 26.1 µM (inactive); in experiment [6], 32.9 µM (inactive). Moreover, the GI50 in [8] is 29 µM (inactive); in experiment [9], 28.1 µM (inactive); in experiment [10], 17 µM (inactive); in experiment [11] it was 23.1 µM (inactive); in experiment [12], 18.2 µM (inactive); in experiment [13], 29.6 µM (inactive). Further, the GI50 in experiment [14] is 21.9 µM (inactive); in experiment [17], 23.8 µM (inactive); in experiment [15], 35.8 µM (inactive); in experiment [16] it was 33 µM (inactive).
Turning to `COc1ccc(N2C(=O)C(N3C(=O)C=CC3=O)C2C=O)cc1` (stereo not given), the GI50 in experiment [2], in [3], in [4], in experiment [5], in experiment [6] and in experiment [8] was > 100 µM (inactive) each time. The GI50 in [9], in [10], in [11], in experiment [12], in experiment [13] and in experiment [14] was > 100 µM (inactive) throughout. Besides, the GI50 in experiment [17], in [15] and in [16] was > 100 µM (inactive) each time.
Consider `CN(C)CCC(/C=C/c1ccccc1)=N\Nc1ccccc1`, for which the GI50 in experiment [1] is 0.667 µM (active); in [2], 2.03 µM (inactive); in [3] it was 0.617 µM (active); in experiment [4], 1.82 µM (inactive); in experiment [5] it was 2.74 µM (inactive); in experiment [6], 1.96 µM (inactive). Moreover, the GI50 in experiment [7] was 4.32 µM (inactive); in experiment [8], 3.88 µM (inactive); in [9] it was 1.84 µM (inactive); in [10], 2.97 µM (inactive); in experiment [12], 0.325 µM (active); in [13], 0.853 µM (active). For the same compound, the GI50 in experiment [14] was 3.97 µM (inactive); in experiment [15] it was 2.07 µM (inactive); in experiment [16], 0.736 µM (active).
In the case of `O=c1c2ccc3cccc4c(=O)cc(c5ccccc15)-c2c34`, the GI50 is 59.2 µM (inactive) in experiment [1]; > 100 µM (inactive) in experiment [2]; > 100 µM (inactive) in experiment [3]; > 100 µM (inactive) in experiment [5]; > 100 µM (inactive) in experiment [6]; > 100 µM (inactive) in experiment [7]. The GI50 in [8] is > 100 µM (inactive); in experiment [9] it was 76.9 µM (inactive); in experiment [10] it was > 100 µM (inactive); in experiment [11], 22 µM (inactive); in experiment [12], 54.5 µM (inactive); in experiment [14], 31.7 µM (inactive). Besides, the GI50 in [17], in [15] and in [16] was > 100 µM (inactive) throughout.
With `COc1cc(C)c2c(c1)CN1CN2Cc2cc(OC)cc(C)c21`, the GI50 in experiment [1] is 45 µM (inactive); in [2] it was 74.1 µM (inactive); in [3], 29.9 µM (inactive); in experiment [4], > 100 µM (inactive); in experiment [5], 46.3 µM (inactive); in experiment [6], 57 µM (inactive). Also, the GI50 in experiment [7] was 32.8 µM (inactive); in experiment [8], < 0.01 µM (active); in experiment [9] it was > 100 µM (inactive); in [10], 74.8 µM (inactive); in experiment [11], 45.6 µM (inactive); in [12], 46.9 µM (inactive). Besides, the GI50 in experiment [13] is 43.8 µM (inactive); in experiment [14], 45.8 µM (inactive); in experiment [15] it was 32.7 µM (inactive); in [16] it was 48.1 µM (inactive).
Turning to `Cc1ccc(C)c(N2C/C(=N\NC(=O)CC#N)C(c3nc4ccccc4s3)C(=O)C2=O)c1` (stereo not given), the GI50 in [1], in experiment [2], in experiment [3], in [5], in experiment [6] and in experiment [7] was > 100 µM (inactive) each time. Moreover, the GI50 in experiment [8], in [9], in experiment [10], in experiment [11], in [14] and in [17] was > 100 µM (inactive) in each case. Moreover, the GI50 in [15] and in [16] was > 100 µM (inactive) each time.
`CCN(CC)CC(=O)N1CCc2c([nH]c3ccccc23)C1c1cccnc1` (stereo not given): the GI50 in experiment [1], in experiment [2], in experiment [3], in experiment [4], in [5] and in [7] was > 100 µM (inactive) each time. For the same compound, the GI50 was > 100 µM (inactive) in experiment [8]; > 100 µM (inactive) in experiment [9]; > 100 µM (inactive) in [10]; > 100 µM (inactive) in [12]; 71.8 µM (inactive) in [13]; > 100 µM (inactive) in experiment [14]. In addition, the GI50 in experiment [17], in experiment [15] and in experiment [16] was > 100 µM (inactive) throughout.
For `CC/C(C)=C1\CCC(CN2CCOCC2)C1=O` (stereo not given), the GI50 is 22.5 µM (inactive) in experiment [1]; 10.1 µM (inactive) in [2]; 17.6 µM (inactive) in experiment [3]; 20.2 µM (inactive) in [4]; 8.69 µM (inactive) in [5]; 17.6 µM (inactive) in experiment [7]. Besides, the GI50 in experiment [8] was 47.9 µM (inactive); in experiment [10], 15.6 µM (inactive); in experiment [11], 17.8 µM (inactive); in experiment [12], 7.46 µM (inactive); in [13] it was 2.21 µM (inactive); in experiment [14], 13.8 µM (inactive). Also, the results for the GI50 in experiment [17], in [15] and in [16] were 24.2 µM (inactive), 18.7 µM (inactive) and 11.5 µM (inactive), respectively.
For the compound `NC(=O)N/N=C/C(=C/Nc1ccccc1)[N+](=O)[O-]`, the GI50 in experiment [1] is 93.8 µM (inactive); in [2], > 100 µM (inactive); in experiment [3] it was > 100 µM (inactive); in experiment [5], > 100 µM (inactive); in experiment [6], > 100 µM (inactive); in experiment [7], > 100 µM (inactive). Also, the GI50 in experiment [8], in experiment [9], in experiment [10], in experiment [12], in experiment [13] and in [14] was > 100 µM (inactive) throughout. Besides, the GI50 in experiment [17], in experiment [15] and in [16] was > 100 µM (inactive) each time.
Take `O=C(NC1C2CC3CC(C2)CC1C3)c1ccncn1` (stereo not given): the GI50 in experiment [2], in experiment [3], in experiment [4], in [5], in experiment [6] and in experiment [7] was > 100 µM (inactive) in each case. The GI50 in [8], in experiment [9], in experiment [10], in experiment [11], in [12] and in experiment [14] was > 100 µM (inactive) each time. The GI50 in experiment [17], in experiment [15] and in experiment [16] was > 100 µM (inactive) throughout.

Values taken from ChEMBL document CHEMBL1201862, “PubChem BioAssay data set” (2004).
